Measured values from patent publication US20210386367A1, “DEVICES AND SYSTEMS FOR GASTROINTESTINAL MICROBIOME DETECTION AND MANIPULATION” (Progenity, Inc., priority 2018, published 2021).
In brackets after ≈: the same amount, converted by molar mass. Entries after “also recorded” stand apart in the source; their conditions may differ. Like-named read-outs stand apart in the source and are kept apart here.

Tests used:
Type in all cases: cell-based
[1] = tested on: Enterococcus faecalis clinical isolates; experiment: MIC distribution against clinical isolates; settings: 50 E. faecalis isolates
Source text: (§1) As used herein, “minimum inhibitory concentration” or “MIC” refers to the lowest concentration of an antimicrobial agent, for example, an antimicrobial agent as described herein, required to inhibit the growth of an organism.
(§2) Many susceptibility testing methods are known in the art and can be used as described herein (see, e.g., Jorgensen and Ferraro (2009) Clinical Infectious Diseases 49:1749-1755; and Maurer et al. (2017) Infectious Disease Reports 9:6839; the entire contents of each of the foregoing are incorporated herein by reference). For example, antimicrobial susceptibility can be determined using conventional culture based methods such as the broth or agar dilution test. In these dilution tests, the bacterial isolate of interest is inoculated onto different media that include serial dilutions of an antimicrobial agent, and incubated under appropriate conditions (e.g., overnight at 37° C.) to allow for growth to occur. Following the incubation period, the media is examined to determine bacterial growth. The lowest concentration of antibiotic that prevents growth represents the minimal inhibitory concentration (MIC). Broth dilution tests can be miniaturized and mechanized allowing for reproducibility and high throughput.

[2] = tested on: Staphylococcus aureus clinical isolates; experiment: MIC distribution against clinical isolates; settings: 50 S. aureus isolates
Source text: as §1, §2

[3] = tested on: Streptococcus pyogenes clinical isolates; experiment: MIC distribution against clinical isolates; settings: 19 S. pyogenes isolates
Source text: (§3) As used herein, “minimum inhibitory concentration” or “MIC” refers to the lowest concentration of an antimicrobial agent, for example, an antimicrobial agent as described herein, required to inhibit the growth of an organism. […] “MIC90” represents the MIC value at which ≥90% of the strains within a test population are inhibited; the 90th percentile.
as §2

[4] = tested on: Viridans group Streptococci clinical isolates; experiment: MIC distribution against clinical isolates; settings: 15 Viridans group Streptococci isolates
Source text: as §3, §2

Enterococcus faecalis = experiment: Broth microdilution MIC, 50 clinical isolates
Method: (§4) Minimal inhibitory concentration (MIC) values were determined by broth microdilution or agar dilution in accordance with guidelines from the Clinical and Laboratory Standards Institute (CLSI; (1) “Methods for Dilution Antimicrobial Susceptibility Tests for Bacteria That Grow Aerobically; Approved Standard; 11th ed.” CLSI standard M07-A11, 2018; (2) “Performance Standards for Antimicrobial Susceptibility Testing; Twenty-Eighth Informational Supplement,” CLSI document M100-S28, 2018; and (3) “Methods for Antimicrobial Susceptibility Testing of Anaerobic Bacteria; Approved Standard—Eighth Edition,” CLSI document M11-A8, 2012).
(§5) Tested aerobically by broth microdilution: • Escherichia coli, n=50 • Klebsiella spp., n=50 • Pseudomonas aeruginosa, n=50 • Streptococcus spp., n=50 • Staphylococcus aureus, n=50 • Enterococcus faecalis, n=50 • Enterobacter aerogenes, n=50 • Proteus mirabilis, n=50
(§6) Broth microdilution testing of aerobic bacteria was conducted in cation-adjusted Mueller Hinton broth (MHBII). For testing streptococci, lysed horse blood (LHB) was added to MHBII broth at a final concentration of 3%. Where LHB was used, it was added after filtering.
(§7) Broth microdilution susceptibility testing in 96-well microplates was conducted in accordance with CLSI methods (1) and (2). Automated liquid handlers were used to conduct serial dilutions and liquid transfers, including the Multidrop 384 (Labsystems, Helsinki, Finland), Biomek 2000, and the Biomek FX (Beckman Coulter, Fullerton, Calif.). All wells in columns 2 through 12 of a standard 96-well microdilution plate (Costar 3795) were filled with 150 μL of the appropriate diluent. Then, 300 μL of the test agents were added to the wells of column 1 of the plates at 100× the highest final concentration to be tested. Serial two-fold dilutions were made across the rows through column 11 using the Biomek 2000. The wells of column 12 contained no drug and served as the growth control wells. This plate served as the “mother plate” from which MIC assay plates or “daughter plates” were made.
(§8) The daughter plates were loaded with 190 μL per well of the appropriate medium using the Multidrop 384. The daughter plates were created using the Biomek FX which transferred 2 μL of drug solution from each well of a mother plate to each corresponding well of the daughter plate in a single step. A standardized inoculum of each test organism was prepared per CLSI methods (1) to equal a 0.5 McFarland standard, followed by a dilution of 1:20 for aerobes and 1:10 for anaerobes. The plates were then inoculated with 10 μL of the diluted inoculum using the Biomek 2000 from low to high drug concentration, resulting in a final concentration of approximately 5×10^5 CFU/mL per well. An un-inoculated plate was incubated in parallel for each medium for the purpose of assessing solubility of the drug in the test media.
(§9) Inoculated plates were stacked 3 or 4 high, covered with a sterile lid on the top plate, placed into boxes with CO2 planchets (streptococci) or plastic bags (all other isolates). Plates were incubated at 35° C. for 16-24 hr in ambient air for aerobes or for 42-48 hr in the anaerobic environment of the Bactron II anaerobe chamber (Sheldon Manufacturing Co.; Cornelius, Oreg.). Following incubation, the microplates were removed from the incubator and viewed from the bottom using a plate viewer. The MIC values were read and recorded as the lowest concentration of drug that inhibited visible growth of the organism as per CLSI methods (1) and (2).

Staphylococcus aureus = experiment: Broth microdilution MIC, 50 clinical isolates (28 MRSA)
Method: as §4, §5, §6, §7, §8, §9

Streptococcus spp. = experiment: Broth microdilution MIC, 54 clinical isolates
Method: as §4, §5, §6, §7, §8, §9

[5] = 54 Streptococcus spp. clinical isolates

Structure (SMILES): C[C@@H](O)[C@H]1C(=O)N2C(C(=O)O)=C(S[C@@H]3CN[C@H](C(=O)N(C)C)C3)[C@H](C)[C@H]12 [meropenem]
- Cumulative percentage of isolates inhibited at MIC ([1]; MIC 0.5 μg/mL): 2.0%
- Number of test isolates at MIC ([1]; MIC 0.5 μg/mL): 1
- Cumulative percentage of isolates inhibited at MIC ([1]; MIC 1 μg/mL): 8.0%
- Number of test isolates at MIC ([1]; MIC 1 μg/mL): 3
- Cumulative percentage of isolates inhibited at MIC ([1]; MIC 2 μg/mL): 24.0%
- Number of test isolates at MIC ([1]; MIC 2 μg/mL): 8
- Cumulative percentage of isolates inhibited at MIC ([1]; MIC 4 μg/mL): 72.0%
- Number of test isolates at MIC ([1]; MIC 4 μg/mL): 24
- Cumulative percentage of isolates inhibited at MIC ([1]; MIC 8 μg/mL): 96.0%
- Number of test isolates at MIC ([1]; MIC 8 μg/mL): 12
- Cumulative percentage of isolates inhibited at MIC ([1]; MIC 16 μg/mL): 98.0%
- Number of test isolates at MIC ([1]; MIC 16 μg/mL): 1
- Cumulative percentage of isolates inhibited at MIC ([1]; MIC >16 μg/mL): 100.0%
- Number of test isolates at MIC ([1]; MIC >16 μg/mL): 1
- Cumulative percentage of isolates inhibited at MIC ([2]; MIC 0.06 μg/mL): 12.0%
- Number of test isolates at MIC ([2]; MIC 0.06 μg/mL): 6
- Cumulative percentage of isolates inhibited at MIC ([2]; MIC 0.5 μg/mL): 46.0%
- Number of test isolates at MIC ([2]; MIC 0.5 μg/mL): 1
- Cumulative percentage of isolates inhibited at MIC ([2]; MIC 1 μg/mL): 52.0%
- Number of test isolates at MIC ([2]; MIC 1 μg/mL): 3
- Cumulative percentage of isolates inhibited at MIC ([2]; MIC 2 μg/mL): 56.0%
- Number of test isolates at MIC ([2]; MIC 2 μg/mL): 2
- Cumulative percentage of isolates inhibited at MIC ([2]; MIC 4 μg/mL): 78.0%
- Number of test isolates at MIC ([2]; MIC 4 μg/mL): 11
- Cumulative percentage of isolates inhibited at MIC ([2]; MIC 8 μg/mL): 94.0%
- Number of test isolates at MIC ([2]; MIC 8 μg/mL): 8
- Cumulative percentage of isolates inhibited at MIC ([2]; MIC 16 μg/mL): 96.0%
- Number of test isolates at MIC ([2]; MIC 16 μg/mL): 1
- Cumulative percentage of isolates inhibited at MIC ([2]; MIC >16 μg/mL): 100.0%
- Number of test isolates at MIC ([2]; MIC >16 μg/mL): 2
- Cumulative percentage of isolates inhibited at MIC ([3]; MIC 0.004 μg/mL): 78.9%
- Number of test isolates at MIC ([3]; MIC 0.004 μg/mL): 14
- Cumulative percentage of isolates inhibited at MIC ([3]; MIC 0.008 μg/mL): 94.7%
- Number of test isolates at MIC ([3]; MIC 0.008 μg/mL): 3
- Cumulative percentage of isolates inhibited at MIC ([3]; MIC 0.03 μg/mL): 100.0%
- Number of test isolates at MIC ([3]; MIC 0.03 μg/mL): 1
- Cumulative percentage of isolates inhibited at MIC ([3]; MIC ≤0.002 μg/mL): 5.3%
- Number of test isolates at MIC ([3]; MIC ≤0.002 μg/mL): 1
- Cumulative percentage of isolates inhibited at MIC ([4]; MIC 0.004 μg/mL): 6.7%
- Number of test isolates at MIC ([4]; MIC 0.004 μg/mL): 1
- Cumulative percentage of isolates inhibited at MIC ([4]; MIC 0.008 μg/mL): 26.7%
- Number of test isolates at MIC ([4]; MIC 0.008 μg/mL): 3
- Cumulative percentage of isolates inhibited at MIC ([4]; MIC 0.015 μg/mL): 60.0%
- Number of test isolates at MIC ([4]; MIC 0.015 μg/mL): 5
- Cumulative percentage of isolates inhibited at MIC ([4]; MIC 0.03 μg/mL): 80.0%
- Number of test isolates at MIC ([4]; MIC 0.03 μg/mL): 3
- Cumulative percentage of isolates inhibited at MIC ([4]; MIC 0.5 μg/mL): 100.0%
- Number of test isolates at MIC ([4]; MIC 0.5 μg/mL): 2
- Cumulative percentage of isolates inhibited at MIC ([4]; MIC […]): 86.7%
- Number of test isolates at MIC ([4]; MIC […]): 1
- Mode (Enterococcus faecalis): 4 µg/mL
- MIC50 (Enterococcus faecalis; Enterococcus faecalis, read-out: MIC50): 4 µg/mL (≈ 10.4 µM)
- MIC90 (Enterococcus faecalis; Enterococcus faecalis, read-out: MIC90): 8 µg/mL (≈ 20.9 µM)
- Mode (Staphylococcus aureus): 0.12 µg/mL
- MIC50 (Staphylococcus aureus; Staphylococcus aureus, read-out: MIC50): 1 µg/mL (≈ 2.61 µM)
- MIC90 (Staphylococcus aureus; Staphylococcus aureus, read-out: MIC90): 8 µg/mL (≈ 20.9 µM)
- isolates susceptible (Streptococcus spp.): All
- relative activity among drugs tested (Streptococcus spp.): most active drug evaluated; also recorded: most active agent
- MIC50 (Streptococcus spp.; [5]): 0.015 µg/mL (≈ 0.0391 µM)
- MIC90 (Streptococcus spp.; [5]): 0.03 µg/mL (≈ 0.0782 µM)
- MIC range (Streptococcus spp.; [5]): ≤0.002 to 0.5 µg/mL
- % S (Streptococcus spp.; 54 Streptococcus spp. clinical isolates, MXF by FDA breakpoints): 100%
- MIC50 (Streptococcus spp.; Streptococcus, read-out: MIC50): 0.015 µg/mL (≈ 0.0391 µM)
- MIC90 (Streptococcus spp.; Streptococcus, read-out: MIC90): 0.03 µg/mL (≈ 0.0782 µM)
- Mode (Streptococcus spp.; modal MIC, 54 Streptococcus spp. clinical isolates): 0.03 µg/mL
